Experimental data published in US11760717B2, “Resin composition and fluidity improvement method” (Osaka Gas Chemicals Co., Ltd., priority 2020, dated 2023).

Legend:
[1] = 5% mass reduction temperature (TG-DTA); type: physicochemical; conditions: nitrogen atmosphere, 50 to 400° C., heating rate 10° C./min
Method: (5% Mass Reduction Temperature)
The temperature, at which the mass of the sample is reduced by 5% by mass, was measured using a Thermogravimeter-Differential Thermal Analyzer (TG-DTA) (manufactured by PerkinElmer, Inc., “TGA-4000”) in a nitrogen atmosphere, under the condition of a measurement temperature range of 50 to 400° C. with a heating rate of 10° C./min.

[2] = Visual confirmation of extruded thread shaped sample (compatibility of resin and additive); type: physicochemical; conditions: thread shaped sample extruded from the resin composition, visually confirmed
Method: When a thread shaped sample obtained by extruding the resin composition was visually confirmed, the resin and the additive were compatible with each other without becoming cloudy in each of samples.
For each of Examples, the PA66 as a resin and AAD-FL as an additive were kneaded at a ratio shown in Table 3 to prepare a resin composition. Kneading was performed using a twin-screw extruder (manufactured by Parker Corporation, “HK25D”, L/D=41, screw diameter: 25 mm) under the conditions of a temperature of 270° C., a screw rotation speed of 150 rpm, and a discharge amount of 6 kg/hour. When a thread shaped sample obtained by extruding the resin composition was visually confirmed, the resin and the additive were compatible with each other without becoming cloudy in each of samples in Examples 4 to 6, as in Example 3.

5% mass reduction temperature [1]	compatibility of resin and additive [2]	Compound
320 °C	compatible with the resin	NC(=O)CCC1(CCC(N)=O)c2ccccc2-c2ccccc21 [AAD-FL, 9,9-bis(2-carbamoylethyl)fluorene]
294 °C		CCN(CC)C(=O)CCC1(CCC(=O)N(CC)CC)c2ccccc2-c2ccccc21 [DEAA-FL, 9,9-bis[2-(N,N-diethylcarbamoyl)ethyl]fluorene]
318 °C		CN(C)C(=O)CCC1(CCC(=O)N(C)C)c2ccccc2-c2ccccc21 [DMAA-FL, 9,9-bis[2-(N,N-dimethylcarbamoyl)ethyl]fluorene]
257 °C		CC(C)NC(=O)CCC1(CCC(=O)NC(C)C)c2ccccc2-c2ccccc21 [NIPAM-FL, 9,9-bis[2-(N-isopropylcarbamoyl)ethyl]fluorene]
